The structures appear in SMILES notation.

The first series deals with T1, hPDE-4D6 (Homo sapiens, UniProt Q08499).
T1 construct: made in house; host or cells: Sf9 insect cells (baculovirus)
T1 sequence (Q08499 1-518 isoform Q08499-8): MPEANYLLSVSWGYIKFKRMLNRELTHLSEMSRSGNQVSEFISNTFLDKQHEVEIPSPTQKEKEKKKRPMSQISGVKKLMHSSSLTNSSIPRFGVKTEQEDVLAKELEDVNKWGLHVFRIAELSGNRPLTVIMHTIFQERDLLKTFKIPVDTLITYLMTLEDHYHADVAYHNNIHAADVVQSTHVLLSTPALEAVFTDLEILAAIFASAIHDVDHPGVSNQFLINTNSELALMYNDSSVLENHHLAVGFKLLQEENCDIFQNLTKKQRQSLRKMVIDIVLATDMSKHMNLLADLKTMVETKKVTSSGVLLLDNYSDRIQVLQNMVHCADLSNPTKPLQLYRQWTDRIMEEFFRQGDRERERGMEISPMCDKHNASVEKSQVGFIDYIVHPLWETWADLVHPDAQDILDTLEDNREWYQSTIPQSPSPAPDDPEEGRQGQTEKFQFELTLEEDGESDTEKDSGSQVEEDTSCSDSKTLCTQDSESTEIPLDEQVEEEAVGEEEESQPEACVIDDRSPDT
The experiment in a line: In vitro measurement of type 4 phosphodiesterase inhibition activity (hPDE-4D6, [3H]cAMP/alumina column assay). Type of series: biochemical. The following applies: recombinant hPDE-4D6 from Sf9 cell lysate, 3 uM cAMP, 12 min, room temperature; read-out: PDE4D6 IC50. The protocol:
Human PDE4 was obtained from baculovirus-infected Sf9 cells that expressed the recombinant enzyme. The cDNA encoding hPDE-4D6 was subcloned into a baculovirus vector.
Insect cells (Sf9) were infected with the baculovirus and cells were cultured until protein was expressed. The baculovirus-infected cells were lysed and the lysate was used as source of hPDE-4D6 enzyme. The enzyme was partially purified using a DEAE ion exchange chromatography. This procedure can be repeated using cDNA encoding other PDE-4 enzymes.
Type 4 phosphodiesterases convert cyclic adenosine monophosphate (cAMP) to 5′-adenosine monophosphate (5′-AMP). Nucleotidase converts 5′-AMP to adenosine. Therefore the combined activity of PDE4 and nucleotidase converts cAMP to adenosine. Adenosine is readily separated from cAMP by neutral alumina columns. Phosphodiesterase inhibitors block the conversion of cAMP to adenosine in this assay; consequently, PDE4 inhibitors cause a decrease in adenosine.
Cell lysates (40 ul) expressing hPDE-4D6 were combined with 50 ul of assay mix and 10 μl of inhibitors and incubated for 12 min at room temperature. Final concentrations of assay components were: 0.4 ug enzyme, 10 mM Tris-HCl (pH 7.5), 1 mM MgCl2, 3 uM cAMP, 0.002 U 5′-nucleotidase, and 3×10^4 cpm of [3H]cAMP. The reaction was stopped by adding 100 μl of boiling 5mN HCl. An aliquot of 75 μl of reaction mixture was transferred from each well to alumina columns (Multiplate; Millipore). Labeled adenosine was eluted into an OptiPlate by spinning at 2000 rpm for 2 min; 150 μl per well of scintillation fluid was added to the OptiPlate. The plate was sealed, shaken for about 30 min, and cpm of [^3H]adenosine was determined using a Wallac Triflux®.
All test compounds are dissolved in 100% DMSO and diluted into the assay such that the final concentration of DMSO is 0.1%.
A decrease in adenosine concentration is indicative of inhibition of PDE activity. […] Nonlinear regression software (Assay Explorer@) was used to estimate pIC50 values.
By IC50 is commonly meant the concentration that gives 50% inhibition. On to `COc1ccc(N(Cc2cncnc2)c2cccc(C(=O)O)c2)cc1OC1CC1` [Example 218], for which the IC50 came to 1.08 nM.
For `O=C(O)Cc1ccc(N(Cc2cncnc2)c2ccc(OC(F)F)c(OC(F)F)c2)cc1` [Example 137], the IC50 worked out at 139 nM.
As for `COc1ccc(N(Cc2cncs2)c2ccc(C(=O)O)cc2)cc1OCC1CC1` [Example 72], the IC50 was determined as 25.1 nM.
The same measure, in the same setting: to `O=C(O)Cc1cccc(N(Cc2cncnc2)c2ccc(OC(F)F)c(OC(F)F)c2)c1` [Example 139] belongs 53 nM.
As to `COc1ccc(N(Cc2cncs2)c2ccc(C(=O)O)cc2)cc1OC` [Example 138], the IC50 came out at 61 nM.
In the case of `CCOc1cc(N(Cc2cocn2)c2ccc(C(=O)O)cc2)ccc1OC(F)F` [Example 190], the IC50 was determined as 20 nM.
`O=C(O)c1ccc(N(Cc2cncs2)c2ccc(OC(F)F)c(OC(F)F)c2)cc1` [Example 59]: the IC50 worked out at 5.69 nM.
`COc1ccc(N(Cc2cncs2)c2ccc(C(=O)O)cc2)cc1OC(C)C` [Example 131]: the IC50 worked out at 17.3 nM.
Regarding `O=C(O)c1ccc(N(Cc2cnccn2)c2ccc(OC(F)F)c(OC(F)F)c2)cc1` [Example 142], the IC50 amounted to 289 nM.
On to `CCOc1cc(N(Cc2cnc(C)s2)c2ccc(C(=O)O)cc2)ccc1OC(F)F` [Example 225], for which the IC50 amounted to 4.38 nM.
In the case of `CCOc1cc(N(Cc2cnns2)c2ccc(C(=O)O)cc2)ccc1OC(F)F` [Example 281], the IC50 stood at 0.16 nM.
Turning to `CCOc1cc(N(Cc2cncs2)c2ccc(C(=O)O)cc2)ccc1OC` [Example 130], the concentration for half-maximal inhibition (IC50) worked out at 8.6 nM.
Still for that read-out and setting: the value for `COc1cc(N(Cc2cncs2)c2cccc(C(=O)O)c2)ccc1OC(F)F` [Example 116] was 7 nM; that for `O=C(O)c1ccc(N(Cc2cnco2)c2ccc(OC(F)F)c(OC(F)F)c2)cc1` [Example 141] was 27 nM; that for `COc1ccc(N(Cc2cnco2)c2ccc(C(=O)O)cc2)cc1OC1CC1` [Example 189] was 2.3 nM.
As for `CCOc1cc(N(Cc2cncnc2)c2ccc(C(=O)O)cc2)ccc1OC(F)F` [Example 143], the IC50 turned out to be 7.5 nM.
On to `O=C(O)c1ccc(Nc2ccc(OC(F)F)c(OC(F)F)c2)cc1` [Example 295], for which the half-inhibitory concentration (IC50) is 108 nM.
Turning to `COc1ccc(N(Cc2cnco2)c2ccc(C(=O)O)cc2)cc1OC(F)(F)F` [Example 232], the IC50 amounted to 6.94 nM.
Regarding `CCOc1cc(N(Cc2cccnc2)c2ccc(C(=O)O)cc2)ccc1OC(F)F` [Example 14], the IC50 was 2.54 nM.
Turning to `O=C(O)c1ccc(N(Cc2cnco2)c2ccc(OC(F)F)c(OC3CCC3)c2)cc1` [Example 182], the IC50 stood at 3.8 nM.
The same measure, in the same setting: the value for `CCOc1cc(N(Cc2cnco2)c2ccc(C(=O)O)cc2)ccc1OC(F)(F)F` [Example 217] was 12 nM; that for `O=C(O)c1ccc(N(Cc2cncnc2)c2ccc(OC(F)F)c(OC(F)F)c2)cc1` [Example 80] was 6.17 nM; that for `CCOc1cc(Nc2ccc(C(=O)O)cc2)ccc1OC(F)F` [Example 294] was 34.9 nM.
On to `COc1cc(N(Cc2cccnc2)c2ccc(C(=O)O)cc2)ccc1OC(F)F` [Example 124], for which the IC50 stood at 11.2 nM.
The same measure, in the same setting: to `COc1ccc(N(Cc2cccnn2)c2ccc(C(=O)O)cc2)cc1OC1CCCC1` [Example 47] belongs 128 nM; to `COc1ccc(N(Cc2cncs2)c2ccc(S(C)(=O)=O)cc2)cc1O[C@@H]1CCOC1` [Example 111], 29 nM.

For a further series, the system named is rats. The experiment in a line: Passive avoidance in rats, in vivo test for learning and memory. Details: species or system rat. The conditions noted are these: male Sprague-Dawley rats, 0.1 mg/kg, 24 hours after electric shock, compared to vehicle (p<0.001). The protocol:
The test was performed as previously described (Zhang, H.-T., Crissman, A. M., Dorairaj, N. R., Chandler, L. J., and O'Donnell, J. M., Neuropsychopharmacology, 2000, 23, 198-204.). The apparatus (Model E10-16SC, Coulboum Instruments, Allentown, Pa.) consisted of a two-compartment chamber with an illuminated compartment connected to a darkened compartment by a guillotine door. The floor of the darkened compartment consisted of stainless steel rods through which an electric foot-shock could be delivered from a constant current source. All experimental groups were first habituated to the apparatus the day before the start of the experiment. During the training, the rat (Male Sprague-Dawley (Harlan) weighing 250 to 350 g) was placed in the illuminated compartment facing away from the closed guillotine door for 1 minute before the door was raised. The latency for entering the darkened compartment was recorded. After the rat entered the darkened compartment, the door was closed and a 0.5 mA electric shock was administered for 3 seconds. […] The latency for entering the darkened compartment was recorded for up to 180 seconds, at which time the trial was terminated.
(§1) All data were analyzed by analyses of variance (ANOVA); individual comparisons were made using Kewman-Keuls tests. […]
In the case of `C[C@]12N[C@H](Cc3ccccc31)c1ccccc12` [MK-801], the “latency for entering the darkened compartment (retention test)” value is on record as “markedly reduced this latency”.

In a further series the test system is rats. As to the kind of experiment: Radial arm maze task in rats, in vivo test for learning and memory. The following applies: male Sprague-Dawley rats, 0.1 mg/kg, i.p., compared to control (p<0.01). Also noted: species or system rat. The method, then:
The test was performed as previously described (Zhang, H.-T., Crissman, A. M., Dorairaj, N. R., Chandler, L. J., and O'Donnell, J. M., Neuropsychopharmacology, 2000, 23, 198-204.). Five days after initial housing, rats (male Sprague-Dawley (Harlan) weighing 250 to 350 g) were placed in the eight-arm radial maze (each arm was 60×10×12 cm high; the maze was elevated 70 cm above the floor) for acclimation for two days. Rats were then placed individually in the center of the maze for 5 minutes with food pellets placed close to the food wells, and then, the next day, in the wells at the end of the arms; 2 sessions a day were conducted. Next, four randomly selected arms were then baited with one pellet of food each. The rat was restricted to the center platform (26 cm in diameter) for 15 seconds and then allowed to move freely throughout the maze until it collected all pellets of food or 10 minutes passed, whichever came first. Four parameters were recorded: 1) working memory errors, i.e., entries into baited arms that had already been visited during the same trial; 2) reference memory errors, i.e., entries into unbaited arms; 3) total arm entries; and 4) the test duration (seconds), i.e., the time spent in the collection of all the pellets in the maze. […]
as §1
`C[C@]12N[C@H](Cc3ccccc31)c1ccccc12` [MK-801]: the “frequencies of working and reference memory errors” value is “increased the frequencies of both working and reference memory errors”.

Tested on in another series: not given
Assay: not given
Conditions: not given
Broadly, the melting point is the temperature, or range, at which the solid turns liquid. With `COc1ccc(N(Cc2cnco2)c2ccc(C(=O)O)cc2)cc1OC1CCC1` [Compound 184], the melting point was 148 to 150.3 °C.

Source of the values: patent US20100029689A1, “PHOSPHODIESTERASE 4 INHIBITORS” (MEMORY PHARMACEUTICALS CORPORATION, priority 2008, published 2010).
